The results in this text go back to article PMC7773212, “Dissecting the Mechanism of (R)-3-Hydroxybutyrate Dehydrogenase by Kinetic Isotope Effects, Protein Crystallography, and Computational Chemistry” (ACS Catalysis, 2020).

For test [1], the target named is T1, PaHBDH (Psychrobacter arcticus, UniProt Q4FRT2).
T1 construct: gene Psyc_1428; homotetramer; landmarks: Gln99, Ser148, His150, Lys158, Tyr161, Val194, Gln202
The experiment in a line: X-ray crystal structure, […] Å. To be noted: ternary dead-end complex with NAD+. Type of test: binding.

For test [2], the target named is T2, AbHBDH (Acinetobacter baumannii, UniProt A0A1E3M3N6).
T2 construct: gene AUO97_16470; homotetramer; landmarks: Gln95, Ser143, Asn145, Gly149, Phe150, Gly152, Lys153, Tyr156, Val189, Gln197
T2 sequence (A0A1E3M3N6 1-261): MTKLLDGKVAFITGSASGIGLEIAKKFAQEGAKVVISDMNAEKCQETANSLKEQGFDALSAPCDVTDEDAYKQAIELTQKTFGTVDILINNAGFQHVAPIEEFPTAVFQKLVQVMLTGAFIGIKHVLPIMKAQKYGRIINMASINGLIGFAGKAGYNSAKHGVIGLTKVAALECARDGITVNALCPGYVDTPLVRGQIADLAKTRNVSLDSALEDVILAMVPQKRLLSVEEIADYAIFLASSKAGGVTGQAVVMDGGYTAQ
The test is described as follows: X-ray crystal structure, […] Å. Type of test: binding.

Test [3] concerns the target T1, PaHBDH. The test is described as follows: NADH fluorescence titration with enzyme. Type of test: binding. To be noted: 100 mM HEPES, pH 7.0, 25 °C; 3 μM NADH.
For test [4], the target named is T2, AbHBDH. The test is described as follows: isothermal titration calorimetry. Type of test: binding. As to conditions: 100 mM HEPES, pH 7.0, 25 °C; single-site model. (In general: ITC needs no label: the signal is the heat of the interaction.)
Test [5] addresses T1, PaHBDH. The test is described as follows: X-ray crystal structure, […] Å. Type of test: binding.
The target of test [6] is (R)-3-hydroxybutyrate dehydrogenase from Acinetobacter baumannii (Acinetobacter baumannii). The test is described as follows: SEC; analytical gel filtration, Superdex 200 10/300 GL, room temperature, samples loaded at 1 mg/mL, 20 mM HEPES pH 8.0, MW standards. In general terms: Size exclusion chromatography separates by hydrodynamic size, large species first.
For test [7] the target is unchanged. The experiment in a line: crystal structure; ternary complexes with NAD+ and acetoacetate or 3-oxovalerate; tetramers formed with crystallographic symmetry; crystals grown at room temperature.
The target of test [8] is (R)-3-hydroxybutyrate dehydrogenase from Psychrobacter arcticus (Psychrobacter arcticus). The test is described as follows: SEC; analytical gel filtration, Superdex 200 10/300 GL, room temperature, samples loaded at 1 mg/mL, 20 mM HEPES pH 8.0, MW standards.
Test [9] shares this target. The experiment in a line: crystal structure; ternary complexes with NAD+ and acetoacetate or 3-oxovalerate; tetramers formed with crystallographic symmetry; crystals grown at room temperature.
The mark [10] stands for this setting: ternary dead-end complex with NAD+.
Setting [11] is: ternary dead-end complex with acetoacetate (also with 3-oxovalerate).

T1 sequence (Q4FRT2 entry or part of it): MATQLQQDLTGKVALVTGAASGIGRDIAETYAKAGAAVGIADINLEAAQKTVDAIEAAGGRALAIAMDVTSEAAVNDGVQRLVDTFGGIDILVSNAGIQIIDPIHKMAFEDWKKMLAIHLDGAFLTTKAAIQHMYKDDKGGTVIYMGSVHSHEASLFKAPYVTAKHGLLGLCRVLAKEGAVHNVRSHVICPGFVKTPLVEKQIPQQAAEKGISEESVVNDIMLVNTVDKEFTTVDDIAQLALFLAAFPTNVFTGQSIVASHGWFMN

Turning to `CCC(=O)CC(=O)O` [3-oxovalerate], at PaHBDH [1], the “X-ray crystal structure, 1.84 Å” value was “Fobs – Fcalc maps show clear density for NAD^+ and either acetoacetate or 3-oxovalerate”. Moreover, the “X-ray crystal structure, 1.9 Å” value on AbHBDH [2] (setting [10]) is “Fobs – Fcalc maps show clear density for NAD^+ and either acetoacetate or 3-oxovalerate”.

With `NC(=O)C1=CN([C@@H]2O[C@H](COP(=O)(O)OP(=O)(O)OC[C@H]3O[C@@H](n4cnc5c(N)ncnc54)[C@H](O)[C@@H]3O)[C@@H](O)[C@H]2O)C=CC1` [NADH], the Kd – broadly, the constant that tells how readily two partners part at equilibrium – on PaHBDH [3] is 7 ± 2 µM; at AbHBDH [4], 14 ± 8 µM.

Consider `NC(=O)c1ccc[n+]([C@@H]2O[C@H](COP(=O)(O)OP(=O)(O)OC[C@H]3O[C@@H](n4cnc5c(N)ncnc54)[C@H](O)[C@@H]3O)[C@@H](O)[C@H]2O)c1` [NAD^+], for which, at PaHBDH [5] (setting [11]), the “X-ray crystal structure, 1.3 Å” value is “crystal structures of the ternary complexes PaHBDH:NAD^+:AcAc, AbHBDH:NAD^+:AcAc”. On AbHBDH [2] (setting [11]), the “X-ray crystal structure, 1.9 Å” value is “crystal structures of the ternary complexes PaHBDH:NAD^+:AcAc, AbHBDH:NAD^+:AcAc”.

In the case of `CC(=O)CC(=O)O` [acetoacetate], the “X-ray crystal structure, 1.3 Å” value on PaHBDH [5] (ternary dead-end complex with NAD+, two conformations of acetoacetate) was “crystal structures of the ternary complexes PaHBDH:NAD^+:AcAc, AbHBDH:NAD^+:AcAc”. Besides, the “X-ray crystal structure, 1.9 Å” value at AbHBDH [2] (setting [10]) was “crystal structures of the ternary complexes PaHBDH:NAD^+:AcAc, AbHBDH:NAD^+:AcAc”.

On to “(R)-3-hydroxybutyrate dehydrogenase from Acinetobacter baumannii (enzyme)”, for which the stoichiometry N in test [6] and in [7] was 4 each time.

Take “(R)-3-hydroxybutyrate dehydrogenase from Psychrobacter arcticus (enzyme)”: the stoichiometry N in test [8] and in test [9] was 4 each time.
